Measurements as given in ChEMBL document CHEMBL3351764, “Design, synthesis and biological activity of flavonoid derivatives as selective agonists for neuromedin U 2 receptor” (Bioorg Med Chem, 2014).
Calls of active or inactive are those of the source.

Experiments:
[1] = biological target: Melanocortin receptor 3 (Homo sapiens) (UniProt P41968); assay: Agonist activity at human MC3 receptor at 100 uM to 5 mM
[2] = biological target: Adrenocorticotropic hormone receptor (Mus musculus) (UniProt Q64326); assay: Agonist activity at mouse MC2 receptor at 100 uM to 5 mM
Chain of Adrenocorticotropic hormone receptor (Mus musculus) (Q64326 whole entry): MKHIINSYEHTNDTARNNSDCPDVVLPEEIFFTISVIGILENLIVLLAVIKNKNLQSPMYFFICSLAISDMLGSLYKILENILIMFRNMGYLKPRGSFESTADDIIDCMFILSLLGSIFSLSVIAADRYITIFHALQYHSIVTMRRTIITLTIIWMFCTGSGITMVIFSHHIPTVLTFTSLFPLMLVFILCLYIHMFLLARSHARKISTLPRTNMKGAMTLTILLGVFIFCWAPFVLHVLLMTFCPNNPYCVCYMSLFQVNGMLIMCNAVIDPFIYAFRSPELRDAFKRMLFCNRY

[3] = biological target: Melanocortin receptor 3 (Mus musculus) (UniProt P33033); assay: Agonist activity at mouse MC3 receptor at 100 uM to 5 mM
Chain of Melanocortin receptor 3 (Mus musculus) (P33033 whole entry): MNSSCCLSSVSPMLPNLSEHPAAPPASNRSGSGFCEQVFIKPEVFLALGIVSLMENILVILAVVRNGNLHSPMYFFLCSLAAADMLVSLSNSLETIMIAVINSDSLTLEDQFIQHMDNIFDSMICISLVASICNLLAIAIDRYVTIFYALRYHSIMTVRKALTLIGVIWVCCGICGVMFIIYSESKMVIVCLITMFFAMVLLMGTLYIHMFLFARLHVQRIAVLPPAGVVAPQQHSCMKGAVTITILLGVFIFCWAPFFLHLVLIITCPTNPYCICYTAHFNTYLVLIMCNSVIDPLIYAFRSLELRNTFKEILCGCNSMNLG

[4] = biological target: D(1B) dopamine receptor (Homo sapiens) (UniProt P21918); assay: Agonist activity at human D5 receptor at 100 uM to 5 mM
Chain of D(1B) dopamine receptor (Homo sapiens) (P21918 whole entry): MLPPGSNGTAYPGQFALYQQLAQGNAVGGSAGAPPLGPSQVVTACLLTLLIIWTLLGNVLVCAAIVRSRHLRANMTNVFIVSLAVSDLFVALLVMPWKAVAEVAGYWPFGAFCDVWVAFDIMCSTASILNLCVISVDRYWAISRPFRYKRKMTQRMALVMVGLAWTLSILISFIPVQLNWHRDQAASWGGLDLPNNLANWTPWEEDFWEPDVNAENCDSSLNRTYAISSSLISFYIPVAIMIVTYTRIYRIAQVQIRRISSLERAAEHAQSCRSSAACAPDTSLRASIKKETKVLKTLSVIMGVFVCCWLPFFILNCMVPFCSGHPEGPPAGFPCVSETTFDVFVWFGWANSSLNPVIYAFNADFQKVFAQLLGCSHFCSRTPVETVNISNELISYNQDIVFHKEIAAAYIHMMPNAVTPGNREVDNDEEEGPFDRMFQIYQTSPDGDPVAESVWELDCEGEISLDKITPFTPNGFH

[5] = biological target: Melanin-concentrating hormone receptor 1 (Homo sapiens) (UniProt Q99705); assay: Agonist activity at human MCH1 receptor at 100 uM to 5 mM
Chain of Melanin-concentrating hormone receptor 1 (Homo sapiens) (Q99705 whole entry): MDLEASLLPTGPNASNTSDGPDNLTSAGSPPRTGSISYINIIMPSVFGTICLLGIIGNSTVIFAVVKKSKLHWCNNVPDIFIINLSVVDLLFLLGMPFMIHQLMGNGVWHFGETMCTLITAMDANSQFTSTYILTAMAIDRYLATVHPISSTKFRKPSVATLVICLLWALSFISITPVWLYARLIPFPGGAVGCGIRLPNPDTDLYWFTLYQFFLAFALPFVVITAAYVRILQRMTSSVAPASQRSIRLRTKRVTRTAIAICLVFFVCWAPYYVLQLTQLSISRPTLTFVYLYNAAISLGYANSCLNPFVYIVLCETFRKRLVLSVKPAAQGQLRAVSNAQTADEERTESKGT

[6] = biological target: T1, Neuropeptide Y receptor type 5 (Homo sapiens) (UniProt Q15761); assay: Agonist activity at human NPY5 receptor at 100 uM to 5 mM
T1 sequence (whole entry): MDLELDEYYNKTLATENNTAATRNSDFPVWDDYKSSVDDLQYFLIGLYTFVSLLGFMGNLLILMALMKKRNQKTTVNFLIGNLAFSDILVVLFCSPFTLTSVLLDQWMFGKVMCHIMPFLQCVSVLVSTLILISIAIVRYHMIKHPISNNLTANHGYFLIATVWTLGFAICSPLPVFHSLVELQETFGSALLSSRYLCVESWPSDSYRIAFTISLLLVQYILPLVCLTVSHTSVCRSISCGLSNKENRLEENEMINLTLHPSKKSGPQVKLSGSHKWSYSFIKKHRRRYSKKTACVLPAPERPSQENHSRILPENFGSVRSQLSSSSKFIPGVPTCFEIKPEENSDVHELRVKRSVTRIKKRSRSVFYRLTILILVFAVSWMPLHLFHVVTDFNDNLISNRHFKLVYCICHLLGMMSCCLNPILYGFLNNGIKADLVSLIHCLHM

[7] = biological target: T2, Orexin receptor type 2 (Homo sapiens) (UniProt O43614); assay: Agonist activity at human orexin 2 receptor at 100 uM to 5 mM
T2 sequence (whole entry): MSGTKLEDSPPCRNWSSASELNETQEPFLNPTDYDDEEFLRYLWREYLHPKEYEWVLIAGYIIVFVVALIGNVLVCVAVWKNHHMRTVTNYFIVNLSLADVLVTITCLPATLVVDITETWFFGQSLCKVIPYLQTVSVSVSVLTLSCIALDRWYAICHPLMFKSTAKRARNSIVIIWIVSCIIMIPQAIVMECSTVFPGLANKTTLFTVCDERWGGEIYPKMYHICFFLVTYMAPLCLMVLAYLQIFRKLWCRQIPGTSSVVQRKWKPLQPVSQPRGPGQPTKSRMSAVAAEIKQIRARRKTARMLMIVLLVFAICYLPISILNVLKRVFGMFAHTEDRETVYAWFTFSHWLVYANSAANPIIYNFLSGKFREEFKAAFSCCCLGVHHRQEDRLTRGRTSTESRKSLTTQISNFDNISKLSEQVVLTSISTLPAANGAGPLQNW

[8] = biological target: Glucagon receptor (Homo sapiens) (UniProt P47871); assay: Agonist activity at human Glu receptor at 100 uM to 5 mM
Chain of Glucagon receptor (Homo sapiens) (P47871 whole entry): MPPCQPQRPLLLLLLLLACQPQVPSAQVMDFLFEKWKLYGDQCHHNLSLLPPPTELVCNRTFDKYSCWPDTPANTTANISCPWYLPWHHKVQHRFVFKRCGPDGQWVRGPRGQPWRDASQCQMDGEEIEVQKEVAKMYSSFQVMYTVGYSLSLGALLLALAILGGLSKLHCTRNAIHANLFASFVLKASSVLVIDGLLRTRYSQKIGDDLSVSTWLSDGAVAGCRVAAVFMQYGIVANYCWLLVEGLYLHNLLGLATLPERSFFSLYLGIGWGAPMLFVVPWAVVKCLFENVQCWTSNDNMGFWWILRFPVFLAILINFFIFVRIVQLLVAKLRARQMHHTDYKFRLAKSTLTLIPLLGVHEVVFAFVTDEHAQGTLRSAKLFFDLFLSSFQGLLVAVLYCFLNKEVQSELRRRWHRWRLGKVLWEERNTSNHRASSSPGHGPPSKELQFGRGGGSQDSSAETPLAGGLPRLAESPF

[9] = biological target: Adenosine receptor A2a (Homo sapiens) (UniProt P29274); assay: Agonist activity at human A2a receptor at 100 uM to 5 mM
Chain of Adenosine receptor A2a (Homo sapiens) (P29274 whole entry): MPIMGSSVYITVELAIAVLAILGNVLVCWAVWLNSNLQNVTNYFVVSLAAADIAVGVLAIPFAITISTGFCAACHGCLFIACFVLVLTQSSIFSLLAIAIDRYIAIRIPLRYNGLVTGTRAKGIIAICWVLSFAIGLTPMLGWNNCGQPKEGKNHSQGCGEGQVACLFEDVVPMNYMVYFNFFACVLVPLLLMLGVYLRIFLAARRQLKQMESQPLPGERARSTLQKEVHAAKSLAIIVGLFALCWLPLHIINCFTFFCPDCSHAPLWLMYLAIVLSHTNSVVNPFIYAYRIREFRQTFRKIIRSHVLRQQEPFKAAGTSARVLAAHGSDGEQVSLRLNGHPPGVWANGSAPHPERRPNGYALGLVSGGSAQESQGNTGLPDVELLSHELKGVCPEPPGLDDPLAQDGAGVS

[10] = biological target: T3, Adenosine receptor A3 (Homo sapiens) (UniProt P0DMS8); assay: Agonist activity at human A3 receptor at 100 uM to 5 mM
T3 sequence (whole entry): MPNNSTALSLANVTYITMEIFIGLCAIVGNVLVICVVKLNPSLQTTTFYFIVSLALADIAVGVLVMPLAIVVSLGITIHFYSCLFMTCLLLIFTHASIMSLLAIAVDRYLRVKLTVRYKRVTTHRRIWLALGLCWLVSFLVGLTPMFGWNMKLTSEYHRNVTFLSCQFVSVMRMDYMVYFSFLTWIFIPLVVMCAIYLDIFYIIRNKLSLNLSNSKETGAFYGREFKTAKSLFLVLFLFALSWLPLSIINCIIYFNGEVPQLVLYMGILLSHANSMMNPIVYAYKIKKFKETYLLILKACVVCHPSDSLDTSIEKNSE

[11] = biological target: Melanocortin receptor 4 (Mus musculus) (UniProt P56450); assay: Agonist activity at mouse MC4 receptor at 100 uM to 5 mM
Chain of Melanocortin receptor 4 (Mus musculus) (P56450 whole entry): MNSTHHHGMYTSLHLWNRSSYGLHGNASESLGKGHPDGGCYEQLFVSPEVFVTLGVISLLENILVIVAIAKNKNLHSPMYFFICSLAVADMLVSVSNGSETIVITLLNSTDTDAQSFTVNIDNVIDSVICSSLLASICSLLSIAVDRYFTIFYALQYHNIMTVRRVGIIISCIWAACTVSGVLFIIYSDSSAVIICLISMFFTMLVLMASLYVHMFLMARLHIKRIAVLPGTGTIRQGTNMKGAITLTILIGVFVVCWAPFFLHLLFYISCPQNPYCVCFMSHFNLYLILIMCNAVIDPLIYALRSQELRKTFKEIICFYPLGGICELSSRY

[12] = biological target: T4, 5-hydroxytryptamine receptor 2C (Homo sapiens) (UniProt P28335); assay: Agonist activity at human 5HT2C receptor at 100 uM to 5 mM
T4 sequence (whole entry): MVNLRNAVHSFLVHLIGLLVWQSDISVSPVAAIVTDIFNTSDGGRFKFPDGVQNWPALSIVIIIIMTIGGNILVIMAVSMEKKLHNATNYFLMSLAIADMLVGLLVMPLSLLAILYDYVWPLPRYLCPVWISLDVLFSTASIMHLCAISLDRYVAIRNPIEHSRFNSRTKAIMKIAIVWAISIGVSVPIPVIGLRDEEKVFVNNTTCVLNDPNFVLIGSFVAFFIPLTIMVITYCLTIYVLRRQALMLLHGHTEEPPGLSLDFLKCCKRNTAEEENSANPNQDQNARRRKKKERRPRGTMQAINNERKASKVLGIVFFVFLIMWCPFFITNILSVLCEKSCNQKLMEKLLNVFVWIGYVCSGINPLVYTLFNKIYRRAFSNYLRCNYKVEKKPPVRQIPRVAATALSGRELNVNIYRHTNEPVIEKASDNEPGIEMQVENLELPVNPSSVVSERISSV

Measured: Activity

Chain of Melanocortin receptor 3 (Homo sapiens) (P41968 whole entry): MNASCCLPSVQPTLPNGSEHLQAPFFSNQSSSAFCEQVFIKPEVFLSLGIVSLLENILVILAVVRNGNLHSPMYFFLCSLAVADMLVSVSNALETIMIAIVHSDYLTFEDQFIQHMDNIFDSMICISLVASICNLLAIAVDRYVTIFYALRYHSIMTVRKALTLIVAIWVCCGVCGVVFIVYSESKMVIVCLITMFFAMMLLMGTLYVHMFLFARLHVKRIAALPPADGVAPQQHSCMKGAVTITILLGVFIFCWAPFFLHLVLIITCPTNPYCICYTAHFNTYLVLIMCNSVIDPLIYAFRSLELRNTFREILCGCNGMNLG

O=c1c(O)c(-c2ccc(Br)cc2F)oc2ccccc12
inactive: all assays above

COc1ccc(F)c(-c2oc3ccccc3c(=O)c2O)c1
inactive: all assays above

CCN(CC)c1ccc(-c2oc3ccccc3c(=O)c2O)cc1
inactive: all assays above

COc1cccc(-c2oc3ccccc3c(=O)c2O)c1
inactive: all assays above

CN(C)c1ccc(C2C=Cc3ccccc3O2)cc1 (racemic)
inactive: all assays above

O=c1cc(-c2ccc(Cl)cc2Cl)oc2ccccc12
inactive: all assays above

Clc1ccc(C2C=Cc3ccccc3O2)c(Cl)c1 (racemic)
inactive: all assays above

O=c1c(O)c(-c2cccc(Cl)c2F)oc2ccccc12
inactive: all assays above

COc1ccc(C2C=Cc3ccccc3O2)cc1O (racemic)
inactive: all assays above

COc1cc(-c2oc3ccccc3c(=O)c2O)ccc1O
inactive: all assays above

O=c1c(O)c(-c2c(F)ccc(F)c2Cl)oc2ccccc12
inactive: all assays above
